Assay: xn = mol fraction of the nth substance listed

CCCCCCCCCCCCCCCC[N+](C)(C)C.[Br-] + OC[C@H]1O[C@H](O[C@H]2[C@H](O)[C@@H](O)C(O)O[C@@H]2CO)[C@H](O)[C@@H](O)[C@@H]1O + O
viscosity [mPa·s], 100 kPa
Conditions | 298.15 K | 308.15 K | 318.15 K
x1 = 7.21e-06, x2 = 0 | 0.896 | 0.742 | 0.617
x1 = 1.442e-05, x2 = 0 | 0.898 | 0.744 | 0.617
x1 = 2.162e-05, x2 = 0 | 0.9 | 0.745 | 0.617

CCCCCCCCn1cc[n+](C)c1.N#C[S-] + [Br-].[Li+] + CN1CCCC1=O
298.15 K, 101 kPa
Conditions | viscosity [mPa·s]
x1 = 0.001194, x2 = 0.02592 | 2.51
x1 = 0.001279, x2 = 0.05082 | 3.301
x1 = 0.001363, x2 = 0.07495 | 4.627
x1 = 0.002361, x2 = 0.07487 | 4.663
x1 = 0.002564, x2 = 0.05075 | 3.33
x1 = 0.002749, x2 = 0.02588 | 2.538
x1 = 0.003543, x2 = 0.07478 | 4.688
x1 = 0.003719, x2 = 0.05069 | 3.358
x1 = 0.003898, x2 = 0.02585 | 2.568
x1 = 0.004852, x2 = 0.05063 | 3.389
x1 = 0.005129, x2 = 0.07466 | 4.714
x1 = 0.00561, x2 = 0.02581 | 2.544
x1 = 0.005681, x2 = 0.05059 | 3.416
x1 = 0.006324, x2 = 0.07457 | 4.741
x1 = 0.006743, x2 = 0.02578 | 2.6
x1 = 0.007583, x2 = 0.07448 | 4.77
x1 = 0.007954, x2 = 0.05048 | 3.441
x1 = 0.008125, x2 = 0.02574 | 2.622
x1 = 0.008906, x2 = 0.07438 | 4.799
x1 = 0.009097, x2 = 0.05042 | 3.471
x1 = 0.009222, x2 = 0.02572 | 2.651
x1 = 0.009986, x2 = 0.05037 | 3.503
x1 = 0.01013, x2 = 0.02569 | 2.674
x1 = 0.01054, x2 = 0.07426 | 4.824

CCCCCC[n+]1ccn(C)c1.N#C[S-] + [Br-].[Li+] + CN1CCCC1=O
298.15 K, 101 kPa
Conditions | viscosity [mPa·s]
x1 = 0.001485, x2 = 0.05195 | 3.247
x1 = 0.00149, x2 = 0.02731 | 2.398
x1 = 0.001549, x2 = 0.07614 | 4.405
x1 = 0.003034, x2 = 0.02727 | 2.411
x1 = 0.003327, x2 = 0.07601 | 4.433
x1 = 0.003386, x2 = 0.05185 | 3.276
x1 = 0.004842, x2 = 0.05177 | 3.304
x1 = 0.004935, x2 = 0.02722 | 2.44
x1 = 0.004954, x2 = 0.07588 | 4.462
x1 = 0.005883, x2 = 0.02719 | 2.46
x1 = 0.006254, x2 = 0.0517 | 3.332
x1 = 0.006429, x2 = 0.07577 | 4.49
x1 = 0.007608, x2 = 0.02715 | 2.485
x1 = 0.007678, x2 = 0.07567 | 4.518
x1 = 0.007769, x2 = 0.05162 | 3.36
x1 = 0.009204, x2 = 0.07556 | 4.575
x1 = 0.009231, x2 = 0.05154 | 3.388
x1 = 0.009463, x2 = 0.0271 | 2.489
x1 = 0.009859, x2 = 0.05151 | 3.416
x1 = 0.01038, x2 = 0.02707 | 2.534
x1 = 0.01063, x2 = 0.07545 | 4.603
x1 = 0.01211, x2 = 0.02702 | 2.541
x1 = 0.01221, x2 = 0.07533 | 4.631
x1 = 0.01242, x2 = 0.05138 | 3.444

CCCCCCCCn1cc[n+](C)c1.N#C[S-] + [Cl-].[Li+] + CN1CCCC1=O
298.15 K, 101 kPa
Conditions | viscosity [mPa·s]
x1 = 0.001139, x2 = 0.07166 | 3.748
x1 = 0.001259, x2 = 0.03751 | 2.694
x1 = 0.001303, x2 = 0.1042 | 5.098
x1 = 0.002343, x2 = 0.1041 | 5.122
x1 = 0.002465, x2 = 0.07157 | 3.763
x1 = 0.002516, x2 = 0.03747 | 2.708
x1 = 0.00365, x2 = 0.104 | 5.151
x1 = 0.003672, x2 = 0.03742 | 2.735
x1 = 0.003977, x2 = 0.07146 | 3.796
x1 = 0.004888, x2 = 0.1039 | 5.175
x1 = 0.005019, x2 = 0.03737 | 2.761
x1 = 0.005107, x2 = 0.07138 | 3.83
x1 = 0.00605, x2 = 0.1038 | 5.201
x1 = 0.006235, x2 = 0.0713 | 3.857
x1 = 0.006361, x2 = 0.03732 | 2.789
x1 = 0.007163, x2 = 0.1036 | 5.219
x1 = 0.00736, x2 = 0.07122 | 3.892
x1 = 0.007605, x2 = 0.03728 | 2.811
x1 = 0.00842, x2 = 0.1035 | 5.236
x1 = 0.00867, x2 = 0.07112 | 3.932
x1 = 0.008845, x2 = 0.03723 | 2.84
x1 = 0.009774, x2 = 0.1034 | 5.256
x1 = 0.009789, x2 = 0.07104 | 3.97
x1 = 0.01008, x2 = 0.03718 | 2.854

CCCCCC[n+]1ccn(C)c1.N#C[S-] + [Cl-].[Li+] + CN1CCCC1=O
298.15 K, 101 kPa
Conditions | viscosity [mPa·s]
x1 = 0.001304, x2 = 0.1036 | 5.036
x1 = 0.001343, x2 = 0.0415 | 2.652
x1 = 0.001443, x2 = 0.07122 | 3.694
x1 = 0.002891, x2 = 0.1035 | 5.064
x1 = 0.002967, x2 = 0.07111 | 3.723
x1 = 0.00301, x2 = 0.04143 | 2.691
x1 = 0.004262, x2 = 0.1033 | 5.092
x1 = 0.004468, x2 = 0.071 | 3.75
x1 = 0.004767, x2 = 0.04136 | 2.745
x1 = 0.00607, x2 = 0.1032 | 5.12
x1 = 0.006095, x2 = 0.07088 | 3.806
x1 = 0.00649, x2 = 0.04129 | 2.765
x1 = 0.007465, x2 = 0.07079 | 3.848
x1 = 0.007616, x2 = 0.04124 | 2.776
x1 = 0.007643, x2 = 0.103 | 5.148
x1 = 0.008578, x2 = 0.07071 | 3.887
x1 = 0.008753, x2 = 0.1029 | 5.176
x1 = 0.009233, x2 = 0.04117 | 2.794
x1 = 0.01021, x2 = 0.1027 | 5.204
x1 = 0.0105, x2 = 0.04112 | 2.823
x1 = 0.0108, x2 = 0.07055 | 3.923
x1 = 0.01107, x2 = 0.1026 | 5.231
x1 = 0.01163, x2 = 0.04107 | 2.837
x1 = 0.01204, x2 = 0.07046 | 3.961

— the CheMixHub ionic liquid set
